Values after ≈ are worked out from the molar mass of the structure shown. Active and inactive are the calls of the source. No cut-off for these calls is given here.
Legend:
[1] = Solubility of the compound in PEG400; type: physicochemical
[2] = Ratio of drug concentration in spinal cord to plasma in CCI induced thermal hyperalgesia Sprague-Dawley rat model at 1 mg/kg, po measured at 5.75 hrs post dose; type: ADME, organism-based
[3] = Ratio of drug concentration in spinal cord to plasma in CCI induced thermal hyperalgesia Sprague-Dawley rat model at 0.1 mg/kg, po measured at 5.75 hrs post dose; type: ADME, organism-based
[4] = Metabolic stability in human liver microsomes assessed as half life; type: ADME, Microsome
[5] = molecular target: AP2-associated protein kinase 1 (Homo sapiens, UniProt Q2M2I8); assay: Inhibition of GST-Xa tagged human AAK1 (30 to 330 residues) expresssed in bacteria using (5-FAM)-Aha-KEEQSQITSQVTGQIGWR-NH2 peptide as substrate incubated for 3 hrs in presence of ATP by electrophoretic analysis
[6] = Displacement of 3H-LP-927443 from AAK1 in mouse brain membrane homogenate assessed as inhibition constant at 1 uM incubated for 1 hr by liquid scintillation counter analysis; type: cell membranes
[7] = Metabolic stability in rat liver microsomes assessed as CYP450-mediated metabolism by measuring parent compound remaining at 0.5 uM incubated for 10 mins in presence of NADPH by LC-MS/MS analysis; type: ADME; conditions: read-out: Stability
[8] = Metabolic stability in mouse liver microsomes assessed as CYP450-mediated metabolism by measuring parent compound remaining at 0.5 uM incubated for 10 mins in presence of NADPH by LC-MS/MS analysis; type: ADME; conditions: read-out: Stability
[9] = Protein binding in human plasma assessed as unbound fraction at 10 uM measured after 5 hrs by LC-MS/MS analysis; type: ADME, cell-free
[10] = Permeability of compound at pH 7.4 measured after 4 hrs by PAMPA assay; type: ADME; conditions: read-out: permeability
[11] = Permeability across apical to basolateral side in human Caco-2 cells at 3 uM measured after 2 hrs by LC-MS/MS analysis; type: ADME, cell-based; conditions: read-out: permeability
[12] = Metabolic stability in rat liver microsomes assessed as half life; type: ADME, Microsome
[13] = molecular target: T1, Cytochrome P450 3A4 (Homo sapiens, UniProt P08684); assay: Time dependent inhibition of CYP3A4 (unknown origin) using BSF as substrate measured at 5 mins; type: ADME
[14] = molecular target: T1, Cytochrome P450 3A4; assay: Time dependent inhibition of CYP3A4 (unknown origin) using TST as substrate measured at 30 mins; type: ADME
[15] = molecular target: Bile salt export pump (Homo sapiens, UniProt O95342); assay: Inhibition of BSEP (unknown origin)
[16] = molecular target: Solute carrier family 22 member 6 (Homo sapiens, UniProt Q4U2R8); assay: Inhibition of OAT1 (unknown origin)
[17] = molecular target: Broad substrate specificity ATP-binding cassette transporter ABCG2 (Homo sapiens, UniProt Q9UNQ0); assay: Inhibition of BCRP (unknown origin)
[18] = species on record: Homo sapiens; assay: Inhibition of calcium channel (unknown origin) at 10 uM by electrophysiological method relative to control
[19] = molecular target: Sodium-dependent noradrenaline transporter (Homo sapiens, UniProt P23975); assay: Inhibition of NET (unknown origin); type: toxicity
[20] = system: Rattus norvegicus; assay: Analgesic activity in streptozotocin induced diabetic peripheral neuropathic mechanical allodynia in overnight fasted Sprague-Dawley rat model assessed as reduction in pain response at 0.3 mg/kg, po measured after 5.5 hrs post treatment; type: functional; design: scale not given: the % may be the effect or the level left
[21] = system: Rattus norvegicus; assay: Analgesic activity in CCI induced thermal hyperalgesia Sprague-Dawley rat model assessed as efficacy at 0.3 mg/kg, po measured at 5.75 hrs post dose; type: functional
[22] = system: Rattus norvegicus; assay: Analgesic activity in CCI induced thermal hyperalgesia Sprague-Dawley rat model assessed as efficacy at 1 mg/kg, po measured at 5.75 hrs post dose; type: functional
[23] = Drug uptake in Spinal cord of CCI induced thermal hyperalgesia Sprague-Dawley rat model assessed as spinal occupancy at 1 mg/kg, po measured at 5.75 hrs post dose in presence of [3H]BMT-046091; type: ADME, organism-based; conditions: in vivo
[24] = Cmax in overnight fasted Sprague-Dawley rat plasma with streptozotocin induced diabetic peripheral neuropathic mechanical allodynia at 3 mg/kg, po measured at 5.5 hrs post dose; type: ADME, organism-based; design: route oral, time 5.5 hrs, dose 3 mg/kg
[25] = Drug concentration in overnight fasted Sprague-Dawley rat spinal cord with streptozotocin induced diabetic peripheral neuropathic mechanical allodynia at 0.1 mg/kg, po measured at 5.5 hrs post dose; type: ADME, organism-based; conditions: read-out: Ct
[26] = Ratio of drug concentration in spinal cord to plasma of overnight fasted Sprague-Dawley rat model with streptozotocin induced diabetic peripheral neuropathic mechanical allodynia at 0.3 mg/kg, po measured at 5.5 hrs post dose; type: ADME, organism-based
[27] = Ratio of drug concentration in spinal cord to plasma of overnight fasted Sprague-Dawley rat model with streptozotocin induced diabetic peripheral neuropathic mechanical allodynia at 1 mg/kg, po measured at 5.5 hrs post dose; type: ADME, organism-based
[28] = system: Rattus norvegicus; assay: Analgesic activity in streptozotocin induced diabetic peripheral neuropathic mechanical allodynia in overnight fasted Sprague-Dawley rat model assessed as efficacy at 1 mg/kg, po measured at 5.5 hrs post dose; type: functional
[29] = Cmax in naive Sprague-Dawley rat plasma at 30 mg/kg, po measured at 5.25 hrs post dose; type: ADME, organism-based; design: route oral, time 5.25 hrs, dose 30 mg/kg
[30] = Drug concentration in naive Sprague-Dawley rat spinal cord at 30 mg/kg, po measured at 5.25 hrs post dose; type: ADME, organism-based; conditions: read-out: Ct
[31] = Ratio of drug concentration in spinal cord to plasma in Sprague-Dawley rat at 3 mg/kg, po measured at 5.25 hrs post dose; type: ADME, organism-based
[32] = Ratio of drug concentration in spinal cord to plasma in Sprague-Dawley rat at 10 mg/kg, po measured at 5.25 hrs post dose; type: ADME, organism-based
[33] = Ratio of drug concentration in spinal cord to plasma in Sprague-Dawley rat at 30 mg/kg, po measured at 5.25 hrs post dose; type: ADME, organism-based
[34] = Cmax in dog at 3 mg/kg, po; type: ADME, organism-based, Canis lupus familiaris; design: route oral, dose 3 mg/kg; conditions: in vivo
[35] = AUC (infinity) in rat at 2 mg/kg, iv; type: ADME, organism-based; design: time infinity, route intravenous, dose 2 mg/kg; conditions: in vivo
[36] = AUC (infinity) in rat at 3 mg/kg, po; type: ADME, organism-based; design: route oral, time infinity, dose 3 mg/kg; conditions: in vivo
[37] = AUC (infinity) in dog at 2 mg/kg, iv; type: ADME, organism-based, Canis lupus familiaris; design: time infinity, route intravenous, dose 2 mg/kg; conditions: in vivo
[38] = AUC (infinity) in dog at 3 mg/kg, po; type: ADME, organism-based, Canis lupus familiaris; design: route oral, time infinity, dose 3 mg/kg; conditions: in vivo
[39] = MRT in dog at 2 mg/kg, iv; type: ADME, organism-based, Canis lupus familiaris; conditions: in vivo
[40] = Clearance in mouse at 2 mg/kg, iv; type: ADME, organism-based; conditions: in vivo
[41] = Clearance in rat at 2 mg/kg, iv; type: ADME, organism-based; conditions: in vivo
[42] = Oral bioavailability in rat at 3 mg/kg; type: ADME, organism-based; conditions: in vivo
[43] = Oral bioavailability in dog at 3 mg/kg; type: ADME, organism-based, Canis lupus familiaris; conditions: in vivo
[44] = molecular target: Citron Rho-interacting kinase (Homo sapiens, UniProt O14578); assay: Inhibition of CRIK (unknown origin)
[45] = molecular target: MAP kinase-interacting serine/threonine-protein kinase 2 (Homo sapiens, UniProt Q9HBH9); assay: Inhibition of MNK2 (unknown origin)
[46] = Lipophilicity, log D of the compound at pH 7.4; type: physicochemical; conditions: buffer
[47] = Solubility of the compound at pH 1.2 using crystalline form of sample; type: physicochemical

T1 sequence (P08684 whole entry): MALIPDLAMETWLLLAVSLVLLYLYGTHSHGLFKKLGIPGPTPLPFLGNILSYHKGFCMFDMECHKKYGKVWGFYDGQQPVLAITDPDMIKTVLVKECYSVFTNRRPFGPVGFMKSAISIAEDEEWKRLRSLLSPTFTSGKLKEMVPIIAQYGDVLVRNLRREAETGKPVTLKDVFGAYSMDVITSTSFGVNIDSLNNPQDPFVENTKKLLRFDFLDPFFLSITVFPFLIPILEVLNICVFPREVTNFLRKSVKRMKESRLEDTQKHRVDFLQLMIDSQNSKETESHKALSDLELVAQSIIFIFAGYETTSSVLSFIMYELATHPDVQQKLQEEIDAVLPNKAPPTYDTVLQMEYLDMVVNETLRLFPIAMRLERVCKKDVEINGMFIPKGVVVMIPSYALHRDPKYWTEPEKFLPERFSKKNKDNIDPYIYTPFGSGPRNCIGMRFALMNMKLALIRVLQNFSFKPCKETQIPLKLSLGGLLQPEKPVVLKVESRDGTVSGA
Chain of Bile salt export pump (O95342 whole entry): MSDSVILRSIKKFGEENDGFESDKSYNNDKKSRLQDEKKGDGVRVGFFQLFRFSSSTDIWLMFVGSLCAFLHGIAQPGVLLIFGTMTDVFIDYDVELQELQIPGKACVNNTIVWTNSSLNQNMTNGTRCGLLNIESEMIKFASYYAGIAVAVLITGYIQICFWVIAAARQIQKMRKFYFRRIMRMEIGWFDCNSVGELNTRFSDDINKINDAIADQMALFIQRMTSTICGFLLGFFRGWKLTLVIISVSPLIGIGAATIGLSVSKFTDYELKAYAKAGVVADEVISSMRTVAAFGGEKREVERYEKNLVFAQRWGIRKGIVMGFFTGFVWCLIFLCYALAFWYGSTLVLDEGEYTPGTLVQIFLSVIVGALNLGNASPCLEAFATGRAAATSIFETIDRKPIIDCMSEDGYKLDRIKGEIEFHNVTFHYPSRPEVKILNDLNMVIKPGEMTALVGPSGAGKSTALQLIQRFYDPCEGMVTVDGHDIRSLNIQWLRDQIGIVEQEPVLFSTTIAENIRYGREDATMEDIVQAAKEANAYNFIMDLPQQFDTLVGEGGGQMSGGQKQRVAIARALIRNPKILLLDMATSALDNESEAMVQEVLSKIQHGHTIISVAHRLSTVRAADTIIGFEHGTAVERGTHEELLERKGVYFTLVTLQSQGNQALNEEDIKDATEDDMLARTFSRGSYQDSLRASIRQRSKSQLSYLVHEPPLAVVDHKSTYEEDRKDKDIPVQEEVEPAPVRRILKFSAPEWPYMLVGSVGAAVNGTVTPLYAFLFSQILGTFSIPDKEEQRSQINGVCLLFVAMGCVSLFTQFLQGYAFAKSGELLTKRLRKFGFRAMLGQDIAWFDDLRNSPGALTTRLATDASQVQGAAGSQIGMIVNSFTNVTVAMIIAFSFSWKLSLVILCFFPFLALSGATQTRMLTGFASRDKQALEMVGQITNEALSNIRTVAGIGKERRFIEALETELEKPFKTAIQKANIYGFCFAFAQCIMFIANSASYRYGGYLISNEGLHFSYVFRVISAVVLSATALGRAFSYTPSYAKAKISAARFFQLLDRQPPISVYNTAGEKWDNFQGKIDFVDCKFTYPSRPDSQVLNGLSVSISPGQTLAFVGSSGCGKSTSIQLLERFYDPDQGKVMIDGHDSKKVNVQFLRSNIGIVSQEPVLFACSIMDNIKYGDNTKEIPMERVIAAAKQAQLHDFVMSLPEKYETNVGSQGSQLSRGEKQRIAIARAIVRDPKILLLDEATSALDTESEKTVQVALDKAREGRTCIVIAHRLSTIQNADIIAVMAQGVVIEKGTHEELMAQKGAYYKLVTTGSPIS
Chain of Broad substrate specificity ATP-binding cassette transporter ABCG2 (Q9UNQ0 whole entry): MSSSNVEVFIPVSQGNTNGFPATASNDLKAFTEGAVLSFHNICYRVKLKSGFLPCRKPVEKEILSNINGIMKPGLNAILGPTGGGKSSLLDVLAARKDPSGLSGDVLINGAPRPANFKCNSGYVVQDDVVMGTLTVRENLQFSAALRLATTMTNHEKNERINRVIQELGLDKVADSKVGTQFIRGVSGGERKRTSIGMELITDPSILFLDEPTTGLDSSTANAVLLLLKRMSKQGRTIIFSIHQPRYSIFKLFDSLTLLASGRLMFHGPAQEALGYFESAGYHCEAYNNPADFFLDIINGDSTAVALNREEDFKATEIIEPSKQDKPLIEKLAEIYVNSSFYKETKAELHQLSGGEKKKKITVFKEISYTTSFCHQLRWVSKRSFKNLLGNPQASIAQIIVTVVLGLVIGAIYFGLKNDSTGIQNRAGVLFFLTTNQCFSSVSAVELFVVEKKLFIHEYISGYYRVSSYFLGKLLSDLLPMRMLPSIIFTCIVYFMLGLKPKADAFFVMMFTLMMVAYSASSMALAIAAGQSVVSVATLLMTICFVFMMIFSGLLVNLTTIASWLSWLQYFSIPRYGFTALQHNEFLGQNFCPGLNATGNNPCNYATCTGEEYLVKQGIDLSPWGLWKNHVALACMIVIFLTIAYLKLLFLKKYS
Chain of Citron Rho-interacting kinase (O14578 whole entry): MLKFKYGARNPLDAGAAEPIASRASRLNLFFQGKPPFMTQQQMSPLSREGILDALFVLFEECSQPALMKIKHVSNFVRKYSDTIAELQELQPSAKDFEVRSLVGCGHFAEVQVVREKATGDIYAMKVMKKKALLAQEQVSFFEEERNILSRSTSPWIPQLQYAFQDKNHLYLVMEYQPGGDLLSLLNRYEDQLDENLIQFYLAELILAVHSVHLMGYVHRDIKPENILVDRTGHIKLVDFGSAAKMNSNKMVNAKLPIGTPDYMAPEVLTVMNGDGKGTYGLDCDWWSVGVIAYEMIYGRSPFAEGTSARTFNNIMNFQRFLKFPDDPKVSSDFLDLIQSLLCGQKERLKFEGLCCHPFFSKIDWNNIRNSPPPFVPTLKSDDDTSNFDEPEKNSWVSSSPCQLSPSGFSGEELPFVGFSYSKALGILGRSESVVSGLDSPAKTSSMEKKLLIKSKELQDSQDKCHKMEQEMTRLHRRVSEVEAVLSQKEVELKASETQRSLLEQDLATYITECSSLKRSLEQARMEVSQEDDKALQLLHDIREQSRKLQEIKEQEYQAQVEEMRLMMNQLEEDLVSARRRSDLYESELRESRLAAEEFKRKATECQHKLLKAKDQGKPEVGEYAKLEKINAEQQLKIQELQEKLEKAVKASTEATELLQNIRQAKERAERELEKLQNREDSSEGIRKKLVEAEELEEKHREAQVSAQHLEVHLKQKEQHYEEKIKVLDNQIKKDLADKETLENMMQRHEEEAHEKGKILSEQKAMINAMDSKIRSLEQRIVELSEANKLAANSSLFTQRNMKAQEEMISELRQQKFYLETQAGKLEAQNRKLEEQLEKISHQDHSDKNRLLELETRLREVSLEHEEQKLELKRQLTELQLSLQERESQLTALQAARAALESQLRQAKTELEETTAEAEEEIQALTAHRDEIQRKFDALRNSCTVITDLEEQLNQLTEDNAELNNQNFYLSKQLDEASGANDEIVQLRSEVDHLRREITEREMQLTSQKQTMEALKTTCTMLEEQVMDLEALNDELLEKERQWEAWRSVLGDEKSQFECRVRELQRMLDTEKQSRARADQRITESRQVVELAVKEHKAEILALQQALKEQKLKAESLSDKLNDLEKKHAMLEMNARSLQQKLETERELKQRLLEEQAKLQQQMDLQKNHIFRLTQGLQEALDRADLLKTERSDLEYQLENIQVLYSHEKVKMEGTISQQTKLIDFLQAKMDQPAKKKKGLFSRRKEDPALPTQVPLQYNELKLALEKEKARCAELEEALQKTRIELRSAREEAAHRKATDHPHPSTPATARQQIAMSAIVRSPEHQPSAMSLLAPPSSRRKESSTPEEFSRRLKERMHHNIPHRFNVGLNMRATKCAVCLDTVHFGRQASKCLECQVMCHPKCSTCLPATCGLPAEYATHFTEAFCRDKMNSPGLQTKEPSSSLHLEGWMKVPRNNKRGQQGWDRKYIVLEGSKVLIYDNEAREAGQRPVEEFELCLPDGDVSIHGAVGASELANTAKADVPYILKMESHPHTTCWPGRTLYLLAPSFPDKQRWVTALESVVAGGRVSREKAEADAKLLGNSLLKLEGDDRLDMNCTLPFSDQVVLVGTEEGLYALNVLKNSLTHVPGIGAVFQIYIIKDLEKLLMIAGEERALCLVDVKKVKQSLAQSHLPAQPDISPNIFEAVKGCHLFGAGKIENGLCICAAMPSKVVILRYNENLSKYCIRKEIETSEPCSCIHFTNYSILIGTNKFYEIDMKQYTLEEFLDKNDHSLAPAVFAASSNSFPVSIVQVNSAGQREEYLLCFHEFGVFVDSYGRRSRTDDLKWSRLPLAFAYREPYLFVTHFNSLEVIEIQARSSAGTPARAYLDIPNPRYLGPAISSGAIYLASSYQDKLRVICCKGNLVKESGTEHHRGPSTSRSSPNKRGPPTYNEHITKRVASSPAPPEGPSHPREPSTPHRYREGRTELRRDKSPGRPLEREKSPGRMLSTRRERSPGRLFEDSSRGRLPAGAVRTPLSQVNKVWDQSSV
Chain of MAP kinase-interacting serine/threonine-protein kinase 2 (Q9HBH9 whole entry, looked up): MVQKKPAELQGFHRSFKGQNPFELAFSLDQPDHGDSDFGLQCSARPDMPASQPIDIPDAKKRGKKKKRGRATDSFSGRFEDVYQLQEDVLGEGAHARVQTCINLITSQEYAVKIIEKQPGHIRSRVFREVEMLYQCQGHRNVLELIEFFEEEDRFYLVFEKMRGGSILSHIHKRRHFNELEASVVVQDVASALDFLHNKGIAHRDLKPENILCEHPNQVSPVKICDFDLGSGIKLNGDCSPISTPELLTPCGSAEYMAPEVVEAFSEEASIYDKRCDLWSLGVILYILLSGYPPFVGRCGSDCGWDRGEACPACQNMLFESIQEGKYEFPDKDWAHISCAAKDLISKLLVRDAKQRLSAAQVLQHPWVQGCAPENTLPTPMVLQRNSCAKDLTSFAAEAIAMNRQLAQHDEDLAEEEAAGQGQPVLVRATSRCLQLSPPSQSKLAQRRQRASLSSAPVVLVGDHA

- solubility [1]: > 50000 µg/mL
- Kp at 5.75 h [2]: 19
- Kp at 5.75 h [3]: 43
- half-life [4]: > 2 h
- IC50 [5]: 2 nM
- Ki [6]: 0.31 nM
- remaining at 10 min, 0.5 µM [7]: 92%
- remaining at 10 min, 0.5 µM [8]: 86%
- fraction unbound at 5 h, 10 µM [9]: 0.085
- Papp at 4 h [10]: 72.4 ×10⁻⁶ cm/s
- Papp A→B at 2 h, 3 µM [11]: 19.9 ×10⁻⁶ cm/s
- half-life [12]: > 2 h
- IC50 [13]: > 20000 nM
- IC50 [14]: > 40000 nM
- IC50 [16]: > 30000 nM
- IC50 [17]: 5400 nM
- inhibition [18]: 40%
- Occ [23]: 96%
- Cmax [24]: 366 nM
- concentration at 5.5 h [25]: 75 nM
- Kp at 5.5 h [26]: 8
- Kp at 5.5 h [27]: 9
- Cmax [29]: 1650 nM
- concentration at 5.25 h [30]: 32600 nM
- Kp at 5.25 h [31]: 19
- Kp at 5.25 h [32]: 21
- Kp at 5.25 h [33]: 20
- Cmax [34]: 200 ng/mL
- AUC(0-inf) [35]: 1180 ng·h/mL
- AUC(0-inf) [36]: 880 ng·h/mL
- AUC(0-inf) [37]: 1210 ng·h/mL
- AUC(0-inf) [38]: 1630 ng·h/mL
- MRT [39]: 6.9 h
- clearance [40]: 5 mL/min/kg
- clearance [41]: 28.5 mL/min/kg
- bioavailability [42]: 50%
- bioavailability [43]: 87%
- IC50 [44]: 410 nM
- inhibition [45]: Active
- logD [46]: 1.48
- solubility thermodynamic [47]: 2000 µg/mL (≈ 5.19 mM)
Compound: CC(C)C[C@](C)(N)COc1ccc(-c2ccnc(C(F)F)c2)nc1C(F)F [PILAVAPADIN]
- IC50 [15]: > 30000 nM
- IC50 [19]: 390 nM
- Activity [20]: 20%
- Efficacy [21]: 68%
- Efficacy [22]: 97%
- Efficacy [28]: 60%

— ChEMBL document CHEMBL5046296 (J Med Chem, 2022)
